Where a SMILES comes first, the peptide text is derived from it. Bridges are numbered along the chain shown (N, C = ends). [ ]: non-standard residue; d: D form. NMeL = CN[C@@H](CC(C)C)C(=O)O; αMeL = CC(C)C[C@](C)(N)C(=O)O

The target of one assay is human Nav1.7 (Homo sapiens, UniProt Q15858). As to the kind of experiment: cell-based. Format: cell-based.
In another assay the test system is Nav1.2 (rBIIa). The assay is classed as cell-based, rat.

human Nav1.7, sequence (Q15858 other isoform, or with tags, fused parts or gaps): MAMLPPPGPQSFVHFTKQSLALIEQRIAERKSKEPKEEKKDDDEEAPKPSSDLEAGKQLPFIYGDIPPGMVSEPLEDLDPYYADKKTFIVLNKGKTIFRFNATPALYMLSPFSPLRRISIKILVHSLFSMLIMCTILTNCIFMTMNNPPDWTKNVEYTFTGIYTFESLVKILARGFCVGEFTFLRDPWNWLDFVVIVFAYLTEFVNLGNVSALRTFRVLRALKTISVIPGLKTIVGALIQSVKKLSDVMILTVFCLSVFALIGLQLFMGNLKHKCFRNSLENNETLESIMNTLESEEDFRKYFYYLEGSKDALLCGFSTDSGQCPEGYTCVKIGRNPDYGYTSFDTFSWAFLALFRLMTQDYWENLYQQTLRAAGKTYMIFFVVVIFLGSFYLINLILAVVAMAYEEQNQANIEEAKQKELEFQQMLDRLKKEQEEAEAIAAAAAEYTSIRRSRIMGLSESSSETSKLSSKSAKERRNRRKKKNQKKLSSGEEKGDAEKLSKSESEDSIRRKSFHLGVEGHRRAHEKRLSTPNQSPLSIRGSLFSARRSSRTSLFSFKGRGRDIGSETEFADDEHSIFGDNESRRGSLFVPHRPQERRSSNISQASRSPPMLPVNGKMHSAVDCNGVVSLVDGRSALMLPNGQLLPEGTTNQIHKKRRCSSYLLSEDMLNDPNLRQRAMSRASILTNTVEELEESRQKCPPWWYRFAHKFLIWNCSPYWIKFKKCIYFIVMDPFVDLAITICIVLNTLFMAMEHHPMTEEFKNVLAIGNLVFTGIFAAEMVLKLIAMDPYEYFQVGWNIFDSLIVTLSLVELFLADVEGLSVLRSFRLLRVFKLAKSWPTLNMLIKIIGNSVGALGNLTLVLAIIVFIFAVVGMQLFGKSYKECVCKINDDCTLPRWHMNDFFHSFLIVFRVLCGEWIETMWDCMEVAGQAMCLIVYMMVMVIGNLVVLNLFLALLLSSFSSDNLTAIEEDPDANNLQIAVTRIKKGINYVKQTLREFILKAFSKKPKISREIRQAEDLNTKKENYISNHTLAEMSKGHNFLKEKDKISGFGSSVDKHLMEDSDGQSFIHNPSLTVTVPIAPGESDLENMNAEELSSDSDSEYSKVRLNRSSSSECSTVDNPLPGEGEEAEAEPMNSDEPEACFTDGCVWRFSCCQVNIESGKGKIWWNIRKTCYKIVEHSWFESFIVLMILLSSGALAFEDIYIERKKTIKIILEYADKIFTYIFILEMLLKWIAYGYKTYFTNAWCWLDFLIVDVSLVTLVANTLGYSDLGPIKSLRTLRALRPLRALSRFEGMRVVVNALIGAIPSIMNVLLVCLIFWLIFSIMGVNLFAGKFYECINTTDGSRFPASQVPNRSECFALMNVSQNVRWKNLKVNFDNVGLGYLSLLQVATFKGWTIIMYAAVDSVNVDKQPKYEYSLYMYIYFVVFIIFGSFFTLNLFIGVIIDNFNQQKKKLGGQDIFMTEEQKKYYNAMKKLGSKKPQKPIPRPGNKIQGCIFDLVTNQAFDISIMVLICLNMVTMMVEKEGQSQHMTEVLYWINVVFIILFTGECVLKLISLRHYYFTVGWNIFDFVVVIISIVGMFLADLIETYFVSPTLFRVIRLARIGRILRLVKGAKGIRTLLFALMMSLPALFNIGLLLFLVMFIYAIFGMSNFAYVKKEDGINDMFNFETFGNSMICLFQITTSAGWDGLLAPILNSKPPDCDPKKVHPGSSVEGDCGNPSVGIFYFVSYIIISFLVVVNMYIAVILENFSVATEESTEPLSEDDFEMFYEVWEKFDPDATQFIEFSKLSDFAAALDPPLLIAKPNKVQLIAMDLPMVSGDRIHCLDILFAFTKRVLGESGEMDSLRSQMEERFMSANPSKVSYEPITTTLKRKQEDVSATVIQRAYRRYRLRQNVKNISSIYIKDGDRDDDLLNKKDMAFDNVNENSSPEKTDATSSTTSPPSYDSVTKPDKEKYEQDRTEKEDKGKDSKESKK

By IC50 is commonly meant the point on the concentration scale where inhibition reaches its midpoint. Low readings indicate inhibition by little substance, high ones a need for much substance. Take `CSCC[C@@H]1NC(=O)[C@H](Cc2c[nH]c3ccccc23)NC(=O)[C@H](CCCCN)NC(=O)[C@H](CCC(N)=O)NC(=O)[C@@H](NC(=O)[C@@H](N)Cc2ccc(O)cc2)CSSC[C@@H]2NC(=O)[C@@H]3CSSC[C@@H](C(=O)N[C@@H](CCCCN)C(=O)N[C@@H](CCCCN)C(=O)N[C@@H](CCCCN)C(=O)N[C@@](C)(CC(C)C)C(=O)N[C@@H](Cc4c[nH]c5ccccc45)C(=O)O)NC(=O)[C@H](Cc4c[nH]c5ccccc45)NC(=O)[C@H](CC(C)C)NC(=O)[C@H](CCCNC(=N)N)NC(=O)[C@H](CSSC[C@H](NC(=O)[C@H]([C@@H](C)O)NC(=O)[C@H](Cc4c[nH]c5ccccc45)NC1=O)C(=O)N[C@@H](CC(=O)O)C(=O)N[C@@H](CO)C(=O)N[C@@H](C)C(=O)N[C@@H](CCCNC(=N)N)C(=O)N[C@@H](CCCCN)C(=O)N3)NC(=O)[C@H](C(C)C)NC(=O)[C@H](CC(C)C)NC(=O)CNC(=O)[C@H](CCC(=O)O)NC2=O` [compound 7] (H-YCQKWMWTCDSARKCCEGLVCRLWCKKK[αMeL]W-OH; disulfide 2-16, 9-21, 15-25): the IC50 is 8 ± 1 nM on human Nav1.7 and 28 ± 6 nM in the assay on Nav1.2 (rBIIa).
For `CC[C@H](C)[C@H](NC(=O)[C@H](CCCCN)NC(=O)[C@H](CCCCN)NC(=O)[C@@H]1CSSC[C@@H]2NC(=O)[C@H](CCCCN)NC(=O)[C@H](CCCNC(=N)N)NC(=O)[C@H](C)NC(=O)[C@H](CO)NC(=O)[C@H](CC(=O)O)NC(=O)[C@@H]3CSSC[C@H](NC(=O)[C@H](C(C)C)NC(=O)[C@H](CC(C)C)NC(=O)CNC(=O)[C@H](CCC(=O)O)NC(=O)[C@H](CSSC[C@H](NC(=O)[C@@H](N)Cc4ccc(O)cc4)C(=O)N[C@@H](CCC(N)=O)C(=O)N[C@@H](CCCCN)C(=O)N[C@@H](Cc4c[nH]c5ccccc45)C(=O)N[C@@H](CCSC)C(=O)N[C@@H](Cc4c[nH]c5ccccc45)C(=O)N[C@@H]([C@@H](C)O)C(=O)N3)NC2=O)C(=O)N[C@@H](CCCNC(=N)N)C(=O)N[C@@H](CC(C)C)C(=O)N[C@@H](Cc2c[nH]c3ccccc23)C(=O)N1)C(=O)N[C@H](C(=O)N[C@@H](Cc1c[nH]c2ccccc12)C(=O)O)[C@@H](C)CC` [compound 14] (H-YCQKWMWTCDSARKCCEGLVCRLWCKKIIW-OH; disulfide 2-16, 9-21, 15-25) the same measures were 5 ± 1 nM and 45 nM.
For `CC[C@H](C)[C@H](NC(=O)[C@H](CC(C)C)NC(=O)[C@H](CCCCN)NC(=O)[C@H](CCCCN)NC(=O)[C@H](CCCCN)NC(=O)[C@@H]1CSSC[C@@H]2NC(=O)[C@H](CCCCN)NC(=O)[C@H](CCCNC(=N)N)NC(=O)[C@H](C)NC(=O)[C@H](CO)NC(=O)[C@H](CC(=O)O)NC(=O)[C@@H]3CSSC[C@H](NC(=O)[C@H](C(C)C)NC(=O)[C@H](CC(C)C)NC(=O)CNC(=O)[C@H](CCC(=O)O)NC(=O)[C@H](CSSC[C@H](NC(=O)[C@@H](N)Cc4ccc(O)cc4)C(=O)N[C@@H](CCC(N)=O)C(=O)N[C@@H](CCCCN)C(=O)N[C@@H](Cc4c[nH]c5ccccc45)C(=O)N[C@@H](CCSC)C(=O)N[C@@H](Cc4c[nH]c5ccccc45)C(=O)N[C@@H]([C@@H](C)O)C(=O)N3)NC2=O)C(=O)N[C@@H](CCCNC(=N)N)C(=O)N[C@@H](CC(C)C)C(=O)N[C@@H](Cc2c[nH]c3ccccc23)C(=O)N1)C(=O)O` [compound 10] (H-YCQKWMWTCDSARKCCEGLVCRLWCKKKLI-OH; disulfide 2-16, 9-21, 15-25) the same measures were 4 nM and 98 ± 10 nM.
In the same order, the values of `CC[C@H](C)[C@H](NC(=O)[C@H](CC(C)C)N(C)C(=O)[C@H](CCCCN)NC(=O)[C@H](CCCCN)NC(=O)[C@H](CCCCN)NC(=O)[C@@H]1CSSC[C@@H]2NC(=O)[C@H](CCCCN)NC(=O)[C@H](CCCNC(=N)N)NC(=O)[C@H](C)NC(=O)[C@H](CO)NC(=O)[C@H](CC(=O)O)NC(=O)[C@@H]3CSSC[C@H](NC(=O)[C@H](C(C)C)NC(=O)[C@H](CC(C)C)NC(=O)CNC(=O)[C@H](CCC(=O)O)NC(=O)[C@H](CSSC[C@H](NC(=O)[C@@H](N)Cc4ccc(O)cc4)C(=O)N[C@@H](CCC(N)=O)C(=O)N[C@@H](CCCCN)C(=O)N[C@@H](Cc4c[nH]c5ccccc45)C(=O)N[C@@H](CCSC)C(=O)N[C@@H](Cc4c[nH]c5ccccc45)C(=O)N[C@@H]([C@@H](C)O)C(=O)N3)NC2=O)C(=O)N[C@@H](CCCNC(=N)N)C(=O)N[C@@H](CC(C)C)C(=O)N[C@@H](Cc2c[nH]c3ccccc23)C(=O)N1)C(=O)O` [compound 12] (H-YCQKWMWTCDSARKCCEGLVCRLWCKKK[NMeL]I-OH; disulfide 2-16, 9-21, 15-25) are 528 ± 100 nM and 138 ± 40 nM.

These data come from US9279003B2, “Analogs of sodium channel peptide toxin” (priority 2010, dated 2016).
